# Test results: paper PMC9220178, “Preclinical Characterization of Antioxidant Quinolyl Nitrone QN23 as a New Candidate for the Treatment of Ischemic Stroke” (Antioxidants, 2022)
# Test system: adult male Wistar rats, four-vessel occlusion (4VO) transient forebrain ischemia
# Experiment: Long-term neuronal viability by S6 protein immunostaining, hippocampal CA1
# Assay type: in vivo, rat
# Details: 2.0 mg/kg i.v. at reperfusion onset; 11 weeks of reperfusion
# Protocol: Transient forebrain ischemia was induced in adult male Wistar rats (10–12 weeks, Charles River, L’Arbresle, France) by the standard four-vessel occlusion (4VO) model previously described. Briefly, animals were anesthetized by intraperitoneal injection of a combination of ketamine, diazepam, and atropine (62.5, 5.0, and 0.25 mg/kg, respectively); positioned in a stereotactic device; and both vertebral arteries were cauterized. The next day, anesthesia was induced with 4% isoflurane and maintained at 2–2.5% isoflurane for carotid artery dissection. After anesthesia withdrawal, the carotid arteries were occluded with an atraumatic vascular clamp to induce brain ischemia. During the entire surgical procedure, temperature was monitored at 2 min intervals and kept at 37 °C. After 15 min of ischemia, the carotid arteries were unclamped for brain reperfusion. The animals were studied after 5 days of reperfusion (R5d), or after 11 weeks of reperfusion (long-term studies), and then they were euthanized under deep anesthesia. Animals from the sham control group were handled in the same way, but without occlusion of the carotid arteries. Ischemic animals were treated with vehicle solution (ethanol/polyethylene glycol 400/saline, 1:300:200 v/v), or with nitrones QN23 or NXY-059 in vehicle solution, as a single injection through the tail vein at the onset of reperfusion. […]
compound,measurement,value
"COc1ccc2nc(Cl)c(/C=[N+](\[O-])C(C)(C)C)cc2c1 [QN23, (Z)-N-tert-Butyl-1-(2-chloro-6-methoxyquinolin-3-yl)methanimine Oxide]",S6-positive cells (viable neurons) in hippocampal CA1,preserved a large number of viable neurons
